The test has as its target T1, Kras and SOS1 (biotin-tagged human Kras loaded with GDP, His-tagged human SOS1) (Homo sapiens, UniProt P01116, G12D).
T1 construct: made in house; host or cells: E. coli (stated for Kras only)
Description: Protein-protein interaction inhibition between Kras and SOS1 (KrasGl2D-SOS PPI) using AlphaScreen. The test is classed as binding. The conditions noted are these: AlphaScreen; biotin-tagged human Kras loaded with GDP, His-tagged human SOS1; read-out: KRAS G12D-SOS PPI IC50. Put shortly:
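Energy transfer from nickel-chelate donor beads bound to His-SOS1 to streptavidin acceptor beads bound to biotin-Kras, expressed in E. coli and loaded with GDP after purification, was monitored. Donors were excited at 680 nm; singlet oxygen reaching acceptors gave emission read at 520-620 nm.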

Starred links: 1 amine or outer side, 2 acyl side, 3 side chain; linkers in the order of their positions; H or OH if unused. Positions of bridges follow the written chain, without caps; N, C: chain ends. Non-standard residues stand in square brackets, D forms with d. Residues, ends and D or L forms follow the SMILES beside them. *: point of attachment. hPhe(3,5-F2-4-CF3) = N[C@@H](CCc1cc(F)c(C(F)(F)F)c(F)c1)C(=O)O; hPhe(3-Cl-4-CF3) = N[C@@H](CCc1ccc(C(F)(F)F)c(Cl)c1)C(=O)O; hPhe(4-CF3) = N[C@@H](CCc1ccc(C(F)(F)F)cc1)C(=O)O; NMePhe(3-Cl) = CN[C@@H](Cc1cccc(Cl)c1)C(=O)O; NMePhe(4-Cl) = CN[C@@H](Cc1ccc(Cl)cc1)C(=O)O; NMePhe(4-Me) = CN[C@@H](Cc1ccc(C)cc1)C(=O)O; NMePhe(3-F) = CN[C@@H](Cc1cccc(F)c1)C(=O)O; NMedβ3hAla = C[C@H](CC(=O)[*:2])N(C)[*:1]; NMeGly(cPent) = CN[C@H](C(=O)O)C1CCCC1; Phe(3-F) = N[C@@H](Cc1cccc(F)c1)C(=O)O; Phe(3-I) = N[C@@H](Cc1cccc(I)c1)C(=O)O; Pro(4,4-F2) = O=C(O)[C@@H]1CC(F)(F)CN1; NMeCha = CN[C@@H](CC1CCCCC1)C(=O)O; NMeGly(cPr) = CN[C@H](C(=O)O)C1CC1; Azetidine(3,3-F2) = FC1(F)CN(*)C1; Nva(3-Et) = CCC(CC)[C@H](N)C(=O)O; NMeChg = CN[C@H](C(=O)O)C1CCCCC1; NMeF = CN[C@@H](Cc1ccccc1)C(=O)O; NMeI = CC[C@H](C)[C@H](NC)C(=O)O; NMeD = CN[C@@H](CC(=O)O)C(=O)O; NMeL = CN[C@@H](CC(C)C)C(=O)O; NEtAla = CCN[C@@H](C)C(=O)O; NMeNva = CCC[C@H](NC)C(=O)O; NMeV = CN[C@H](C(=O)O)C(C)C; d(β3hA) = C[C@@H](N)CC(=O)O; NMeA = CN[C@@H](C)C(=O)O; NMeAib = CNC(C)(C)C(=O)O; Piperidide = C1CCN(*)CC1; Pyrrolidide = C1CCN(*)C1; Ac5c = NC1(C(=O)O)CCCC1; Aze = O=C(O)[C@@H]1CCN1; Sar = CNCC(=O)O

T1 sequence (P01116 1-188 isoform P01116-2 G12D): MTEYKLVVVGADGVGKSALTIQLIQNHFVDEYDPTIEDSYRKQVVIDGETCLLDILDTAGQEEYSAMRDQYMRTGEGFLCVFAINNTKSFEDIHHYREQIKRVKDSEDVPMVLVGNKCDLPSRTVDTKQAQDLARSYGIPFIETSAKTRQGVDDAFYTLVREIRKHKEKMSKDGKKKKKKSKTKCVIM

With `CC[C@H](C)[C@@H]1NC(=O)[C@H](C)N(C)C(=O)C[C@@H](C(=O)N2CCCC2)NC(=O)[C@H](C(C)C)N(C)C(=O)[C@H](Cc2ccccc2)N(C)C(=O)[C@H](Cc2ccccc2)NC(=O)[C@H](Cc2cccc(F)c2)NC(=O)CN(C)C(=O)[C@H](Cc2ccc(Cl)cc2)N(C)C(=O)CN(C)C(=O)CN(C)C1=O` [Compound 184] ([NMeA]I[Sar][Sar][NMePhe(4-Cl)][Sar][Phe(3-F)]F[NMeF][NMeV]D-Pyrrolidide; lactam N-11), the half-inhibitory concentration (IC50) stood at 320 nM.

Take `CC[C@H](C)[C@@H]1NC(=O)[C@H](CC(C)C)N(C)C(=O)C[C@@H](C)NC(=O)[C@H](C(C)C)N(C)C(=O)C2(CCCC2)NC(=O)[C@@H]2CCCN2C(=O)[C@H](CCc2ccc(C(F)(F)F)c(Cl)c2)NC(=O)CN(C)C(=O)[C@H](CC2CCCCC2)N(C)C(=O)CN(C)C(=O)[C@@H]2CCCN2C1=O` [Compound 185] (cyclo([Ac5c][NMeV][d(β3hA)][NMeL]IP[Sar][NMeCha][Sar][hPhe(3-Cl-4-CF3)]P)): the IC50 came out at 170 nM. As for `CC[C@H](C)[C@@H]1NC(=O)[C@H](C)N(C)C(=O)C[C@@H](C)NC(=O)[C@H](C2CCCC2)N(C)C(=O)C2(CCCC2)NC(=O)[C@@H]2CCCN2C(=O)[C@H](CCc2ccc(C(F)(F)F)c(Cl)c2)NC(=O)CN(C)C(=O)[C@H](Cc2cccc(Cl)c2)N(C)C(=O)[C@@H]2CCCN2C(=O)CN(C)C1=O` [Compound 186] (cyclo([Ac5c][NMeGly(cPent)][d(β3hA)][NMeA]I[Sar]P[NMePhe(3-Cl)][Sar][hPhe(3-Cl-4-CF3)]P)), the concentration for half-maximal inhibition (IC50) was 48 nM.

For `CCC[C@H]1C(=O)N(C)CC(=O)N[C@@H](CCc2ccc(C(F)(F)F)c(Cl)c2)C(=O)N2CCC[C@H]2C(=O)NC2(CCCC2)C(=O)N(C)[C@@H](C2CCCCC2)C(=O)N(C)[C@H](C(=O)N2CCCCC2)CC(=O)N(C)[C@@H](CC(C)C)C(=O)N[C@@H]([C@@H](C)CC)C(=O)N(C)CC(=O)N(C)CC(=O)N1C` [Compound 187] ([NMeL]I[Sar][Sar][NMeNva][Sar][hPhe(3-Cl-4-CF3)]P[Ac5c][NMeChg][NMeD]-Piperidide; lactam N-11), the concentration for half-maximal inhibition (IC50) was determined as 3.2 nM. Turning to `CC[C@H](C)[C@@H]1NC(=O)[C@H](CC(C)C)N(C)C(=O)C[C@@H](C(=O)N2CCCCC2)N(C)C(=O)[C@H](CC(C)C)NC(=O)C(C)(C)N(C)C(=O)[C@H](Cc2ccc(OC)cc2)NC(=O)[C@H](Cc2cccc(I)c2)NC(=O)CN(C)C(=O)[C@H](Cc2ccc(C)cc2)N(C)C(=O)[C@@H]2CCN2C(=O)CN(C)C1=O` [Compound 188] ([NMeL]I[Sar][Aze][NMePhe(4-Me)][Sar][Phe(3-I)]Y(Me)[NMeAib]L[NMeD]-Piperidide; lactam N-11), the IC50 turned out to be 6.1 nM. With `CC[C@H](C)[C@@H]1NC(=O)[C@H](C)N(C)C(=O)C[C@@H](C(=O)N2CCCCC2)N(C)C(=O)[C@H](C(C)C)N(C)C(=O)[C@H](CC(C)C)NC(=O)[C@H](CC(=O)N2CC(F)(F)C2)N(C)C(=O)[C@H](CCc2ccc(C(F)(F)F)c(Cl)c2)NC(=O)CN(C)C(=O)[C@H](CC2CCCCC2)N(C)C(=O)CN(C)C(=O)CN(C)C1=O` [Compound 190] ([NMeA]I[Sar][Sar][NMeCha][Sar][hPhe(3-Cl-4-CF3)][NMeD](Azetidine(3,3-F2))L[NMeV][NMeD]-Piperidide; lactam N-11), the 50% inhibitory concentration (IC50) came to 150 nM. In the case of `CC[C@H](C)[C@@H]1NC(=O)[C@H](CC(C)C)N(C)C(=O)C[C@@H](C(=O)N(C)C)N(C)C(=O)[C@H](C2CCCC2)N(C)C(=O)C2(CCCC2)NC(=O)[C@@H](C)NC(=O)[C@H](CCc2ccc(C(F)(F)F)c(Cl)c2)NC(=O)CN(C)C(=O)[C@H](CC2CCCCC2)N(C)C(=O)[C@@H]2CCN2C(=O)[C@H](C)N(C)C1=O` [Compound 191] ([NMeL]I[NMeA][Aze][NMeCha][Sar][hPhe(3-Cl-4-CF3)][dA][Ac5c][NMeGly(cPent)][NMeD]-NMe2; lactam N-11), the IC50 amounted to 3.4 nM. Regarding `CCC(CC)[C@@H]1NC(=O)[C@H](CC(C)C)N(C)C(=O)C[C@@H](C(=O)N(C)C)N(C)C(=O)[C@H]([C@@H](C)CC)N(C)C(=O)CNC(=O)[C@@H]2CCCN2C(=O)[C@H](CCc2ccc(C(F)(F)F)c(Cl)c2)NC(=O)CN(C)C(=O)[C@H](Cc2ccc(C)cc2)N(C)C(=O)[C@@H]2CCN2C(=O)[C@H](C)N(C)C1=O` [Compound 193] ([NMeL][Nva(3-Et)][NMeA][Aze][NMePhe(4-Me)][Sar][hPhe(3-Cl-4-CF3)]PG[NMeI][NMeD]-NMe2; lactam N-11), the IC50 stood at 420 nM.

On to `CC[C@H](C)[C@@H]1NC(=O)[C@H](C)N(C)C(=O)C[C@@H](C)NC(=O)[C@H](C2CCCC2)N(C)C(=O)C2(CCCC2)NC(=O)[C@@H]2CCCN2C(=O)[C@H](CCc2ccc(C(F)(F)F)c(Cl)c2)NC(=O)CN(C)C(=O)[C@H](Cc2cccc(F)c2)N(C)C(=O)[C@@H]2CCCN2C(=O)CN(C)C1=O` [Compound 194] (cyclo([Ac5c][NMeGly(cPent)][d(β3hA)][NMeA]I[Sar]P[NMePhe(3-F)][Sar][hPhe(3-Cl-4-CF3)]P)), for which the IC50 came out at 27 nM. Then `CC[C@H](C)[C@@H]1NC(=O)[C@H](C)N(CC)C(=O)C[C@@H](C)NC(=O)[C@H](C(C)C)N(C)C(=O)C2(CCCC2)NC(=O)[C@@H]2CCCN2C(=O)[C@H](CCc2ccc(C(F)(F)F)c(Cl)c2)NC(=O)CN(C)C(=O)[C@H](CC2CCCCC2)N(C)C(=O)CN(C)C(=O)CN(C)C1=O` [Compound 196] (cyclo([Ac5c][NMeV][d(β3hA)][NEtAla]I[Sar][Sar][NMeCha][Sar][hPhe(3-Cl-4-CF3)]P)), with 13 nM; and `CC[C@H](C)[C@@H]1NC(=O)[C@H](CC(C)C)N(C)C(=O)C[C@@H](C(=O)N2CCCCC2)N(C)C(=O)[C@H](C2CC2)N(C)C(=O)C2(CCCC2)NC(=O)[C@@H]2CCCN2C(=O)[C@H](CCc2ccc(C(F)(F)F)c(Cl)c2)NC(=O)CN(C)C(=O)[C@H](CC2CCCCC2)N(C)C(=O)CN(C)C(=O)CN(C)C1=O` [Compound 197] ([NMeL]I[Sar][Sar][NMeCha][Sar][hPhe(3-Cl-4-CF3)]P[Ac5c][NMeGly(cPr)][NMeD]-Piperidide; lactam N-11), with 6.8 nM.

As for `CC[C@H](C)[C@@H]1NC(=O)[C@H](CC(C)C)N(C)C(=O)C[C@@H](C)N(C)C(=O)[C@H](C2CCCC2)N(C)C(=O)C2(CCCC2)NC(=O)[C@@H]2CC(F)(F)CN2C(=O)[C@H](CCc2cc(F)c(C(F)(F)F)c(F)c2)NC(=O)CN(C)C(=O)[C@H](CC2CCCCC2)N(C)C(=O)CN(C)C(=O)CN(C)C1=O` [Compound 198] (cyclo([Ac5c][NMeGly(cPent)][NMedβ3hAla][NMeL]I[Sar][Sar][NMeCha][Sar][hPhe(3,5-F2-4-CF3)][Pro(4,4-F2)])), the half-maximal inhibitory concentration (IC50) amounted to 8.5 nM. For `CC[C@H](C)[C@@H]1NC(=O)[C@H](C)N(C)C(=O)C[C@@H](C(=O)N2CCCC2)NC(=O)[C@H](CC(C)C)N(C)C(=O)[C@H](Cc2ccccc2)N(C)C(=O)[C@H](CC(C)C)N(C)C(=O)[C@H](CCc2ccc(C(F)(F)F)cc2)NC(=O)CN(C)C(=O)[C@H](Cc2ccc(Cl)cc2)N(C)C(=O)CN(C)C(=O)CN(C)C1=O` [Compound 199] ([NMeA]I[Sar][Sar][NMePhe(4-Cl)][Sar][hPhe(4-CF3)][NMeL][NMeF][NMeL]D-Pyrrolidide; lactam N-11), the IC50 turned out to be 36 nM.

What is called IC50 is the midpoint of a concentration-inhibition curve.

Source of the values: patent US12371454B2, “Cyclic peptide compound having Kras inhibitory action” (priority 2019, dated 2025).
